Measured values taken from PubChem BioAssay (NCI).
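All cell lines were grown in 96-well plates and treated with compound for 48 hours. The concentration for 50% growth inhibition is given as GI50. The concentration for full growth arrest is given as TGI.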

Experiments:
Test in all cases: NCI-60 cell line screen, 48 h
[1] = system: OVCAR-4 ovarian
[2] = system: PC-3 prostate
[3] = system: SK-MEL-28 melanoma
[4] = system: M14 melanoma
[5] = system: RXF 393 renal
[6] = system: SR leukemia
[7] = system: T-47D breast
[8] = system: NCI-H226 lung
[9] = system: COLO 205 colon
[10] = system: TK-10 renal

SMILES	GI50 [1] [µM]	TGI [1] [µM]	GI50 [2] [µM]	TGI [2] [µM]	GI50 [3] [µM]	TGI [3] [µM]	GI50 [4] [µM]	TGI [4] [µM]	GI50 [5] [µM]	TGI [5] [µM]	GI50 [6] [µM]	TGI [6] [µM]	GI50 [7] [µM]	TGI [7] [µM]	GI50 [8] [µM]	TGI [8] [µM]	GI50 [9] [µM]	TGI [9] [µM]	GI50 [10] [µM]	TGI [10] [µM]
CCN(Cc1ccc(Cl)cc1)c1ccc(CO)c(Cl)c1	0.543	11.3	11.5	27.7	11.2	24.2	4.43	20.2	2.07	13.3	17.7	51.5	0.196	1.25	0.063	0.198	2.2	8.57	0.0786	0.379
CCN(Cc1cc(Nc2nc(C)cn3c(-c4cn[nH]c4)cnc23)sn1)C(C)(C)CO	< 0.0108	8.38	0.0219	9.66	1.41	14.7	0.0421	2.84	< 0.012	0.0907	< 0.01	1.64	0.0689	18.5	< 0.0106	0.513	< 0.01	0.132	0.0507	2.24
COc1ccc(-c2cc3c(c4cc(OC)ccc24)C(=O)OC3=O)cc1	–	> 100	–	> 100	–	> 100	–	> 100	–	> 100	–	> 100	–	> 100	–	> 100	–	> 100	–	> 100
CNC(=O)Nc1nc2ccc([N+](=O)[O-])cc2[nH]1	–	> 100	–	> 100	–	> 100	–	> 100	–	> 100	–	> 100	–	> 100	–	> 100	–	> 100	–	> 100
COc1ccc(/C=C/C(=O)c2cc(OC)c(OC)c(OC)c2)cc1OCc1cn(Cc2ccc(F)cc2)nn1	3.42	> 100	2.66	> 100	5.62	35.5	4.07	> 100	1.9	5.51	0.843	> 100	3.05	> 100	2.26	7.67	2.98	8.38	3	8.06
O=c1[nH]nnc2c1ncn2C1OC(CO)C(O)C1O (centres undefined)	5.02	> 100	2.93	> 100	68.3	> 100	3.57	> 100	14.1	> 100	3.21	59.7	38.8	> 100	10.3	> 100	6.09	> 100	2.98	> 100
CCCCCCCCNc1cc2c3c(c1)CCCN3CCC2	1.94	12	0.926	12.8	3.87	17.8	2.5	13.6	4.07	17.9	0.551	> 100	1.34	21	2.46	16.4	1.87	4.76	5.69	22
Oc1c(-c2nnc(-c3ccccc3Cl)o2)sc2nnc(-c3ccccc3)c(-c3ccccc3)c12	4.49	> 100	3.15	> 100	16.4	> 100	5	39.3	24.6	> 100	3.96	> 100	4.78	> 100	16.1	> 100	4.4	> 100	5.39	83.7
O=C(Oc1cccc(F)c1OC(=O)c1cccc(O)c1)c1cccc(O)c1	15.2	> 100	52.9	> 100	80.1	> 100	34.1	> 100	12.1	73.6	7.91	> 100	23.1	79.1	45.3	> 100	24.4	73.7	98.6	> 100
CCOC(=O)Nc1ccc2c(c1)/C(=N\NC(N)=S)c1ccccc1-2	4.39	39.1	4.44	24.8	4.58	17.7	4.69	23.1	1.93	4.6	3.13	24.3	2.48	9.84	4.43	17.6	3.74	15	15.2	> 68.5
C=C(C)[C@@H]1CC[C@]2(C)CC[C@]3(C)[C@H](CC[C@@H]4[C@@]5(C)CC[C@H](O)C(C)(C)[C@@H]5CC[C@]43C)[C@@H]12	–	> 100	–	98.4	–	> 100	–	> 100	–	28.7	–	> 100	–	> 100	–	> 86.5	–	> 100	–	> 100
C/C(=N\NC(=S)N1CC2CCC(CC2)C1)c1nccs1	–	17.6	–	16.6	–	19.3	–	1.6	–	5.39	–	6.91	–	14.6	–	4.7	–	16	–	15.9
O=C1C(Cl)=C(Nc2cccc(F)c2)C(=O)N1Cc1ccc(Cl)cc1	4.04	24.6	0.526	4.53	2.96	20.6	1.2	4.35	0.39	4.91	0.128	–	3.57	27.7	0.188	0.852	0.516	11.9	5.7	19.3
